Tests used:
[1] = In vitro release kinetics of sirolimus and cilostazol from coated stents; assay type: physicochemical
[2] = Porcine drug elution PK study of dual drug eluting coating; assay type: in vivo; details: after 8 days of implantation, FIG. 11 stent (sirolimus + cilostazol in one EVA/BMA layer, 100 μg BMA overcoat)
From the text: Another critical parameter for the performance of the thrombus resistance of a device coated with cilostazol is the duration of the drug release from the coating. This is of particular significance in the two weeks after device implantation. In the porcine drug elution PK studies of the dual drug eluting coating, both cilostazol and sirolius were slowly released from the coating, resulting in a sustained drug release profile. The purpose of the porcine PK study is to assess the local pharmacokinetics of a drug eluting stent at a given implantation time. Normally three stents are implanted in three different coronary arteries in a pig for a given time point and then retrieved for total drug recovery analysis. The stents are retrieved at predetermined time points; namely, 1, 3 and 8 days. The stents are extracted and the total amount of drug remaining on the stents is determined by analysis utilizing HPLC (high performance liquid chromatography) for total drug amount. The difference between the original amount of drug on the stent and the amount of drug retrieved at a given time represents the amount of drug released in that period. The continuous release of drug into surrounding arterial tissue is what prevents the neointimal growth and restenosis in the coronary artery. A normal plot represents the percentage of total drug released (%, y-axis) vs. time of implantation (day, x-axis). […]

[3] = Cumulative in vivo drug release from reservoir dual drug eluting stent; details: 30 days; compared to cilostazol
From the text: Referring to FIG. 29, there is illustrated the cumulative in vivo drug release percentages for each drug over a thirty day period. Curve 2902 represents the profile for cilostazol while curve 2904 represents the profile for sirolimus. FIG. 30 is a graphical representation of the amount of each drug, in micrograms, released in vivo. Curve 3002 represents the profile for cilostazol while curve 3004 represents the profile for sirolimus. The curves in the figures illustrate that both the drugs elute independently of each other with minimal or substantially no interaction. […] Since the amount of drug (by weight) is different for the drugs in their respective reservoirs, the total amount of drug released at thirty (30) days was higher for sirolimus as compared to cilostazol.

SMILES | in vitro drug release rate ([1]; 200 μg BMA diffusion overcoat (FIG. 4) versus 100 μg (FIG. 6)) | in vitro release ([1]; FIG. 11 stent (sirolimus + cilostazol in one EVA/BMA layer, 100 μg BMA overcoat), FIG. 10) [%] | drug remained in the drug coating [2] [%] | total amount of drug released (by weight) [3]
O=C1CCc2cc(OCCCCc3nnnn3C3CCCCC3)ccc2N1 [cilostazol, 6[4-(1-cyclohexyl-1H-tetrazol-5-yl)-butoxy]-3,4-dihydro-2-(1H)-quinolinone] | comparatively slower | ~35 | ~80 | –
CO[C@H]1C[C@@H]2CC[C@@H](C)[C@@](O)(O2)C(=O)C(=O)N2CCCC[C@H]2C(=O)O[C@H]([C@H](C)C[C@@H]2CC[C@@H](O)[C@H](OC)C2)CC(=O)[C@H](C)/C=C(\C)[C@@H](O)[C@@H](OC)C(=O)[C@H](C)C[C@H](C)/C=C/C=C/C=C/1C [rapamycin] | – | – | ~80 | higher
